Measurements as given in PubChem BioAssay (NCI).
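In this assay, cells in 96-well plates receive the compound at five concentrations for 48 hours. Endpoints are linearly interpolated between the surrounding concentrations. GI50 is the concentration that inhibits growth by half. TGI denotes the concentration required for complete inhibition of growth.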

Columns and labels:
Assay in all cases: inhibition of tumour cell growth, NCI panel, 48 h
NCI-H226 lung = test system: NCI-H226 lung
786-0 renal = test system: 786-0 renal
CAKI-1 renal = test system: CAKI-1 renal
NCI-H460 lung = test system: NCI-H460 lung
SNB-19 CNS = test system: SNB-19 CNS
SN12C renal = test system: SN12C renal
A498 renal = test system: A498 renal
RXF 393 renal = test system: RXF 393 renal
UO-31 renal = test system: UO-31 renal
OVCAR-8 ovarian = test system: OVCAR-8 ovarian
NCI/ADR-RES ovarian = test system: NCI/ADR-RES ovarian
SF-268 CNS = test system: SF-268 CNS
KM12 colon = test system: KM12 colon
HCC-2998 colon = test system: HCC-2998 colon
SK-MEL-28 melanoma = test system: SK-MEL-28 melanoma
MOLT-4 leukemia = test system: MOLT-4 leukemia
SF-295 CNS = test system: SF-295 CNS
EKVX NSCLC = test system: EKVX NSCLC
SR leukemia = test system: SR leukemia
HCT-116 colon = test system: HCT-116 colon
DU-145 prostate = test system: DU-145 prostate
MDA-MB-231 breast = test system: MDA-MB-231 breast
MALME-3M melanoma = test system: MALME-3M melanoma
T-47D breast = test system: T-47D breast
HL-60(TB) leukemia = test system: HL-60(TB) leukemia
LOX IMVI melanoma = test system: LOX IMVI melanoma
UACC-62 melanoma = test system: UACC-62 melanoma
SW-620 colon = test system: SW-620 colon
PC-3 prostate = test system: PC-3 prostate
TK-10 renal = test system: TK-10 renal
UACC-257 melanoma = test system: UACC-257 melanoma
NCI-H522 lung = test system: NCI-H522 lung
OVCAR-5 ovarian = test system: OVCAR-5 ovarian
HT29 colon = test system: HT29 colon
COLO 205 colon = test system: COLO 205 colon
SNB-75 CNS = test system: SNB-75 CNS
SF-539 CNS = test system: SF-539 CNS
RPMI-8226 leukemia = test system: RPMI-8226 leukemia
HS 578T breast = test system: HS 578T breast
CCRF-CEM leukemia = test system: CCRF-CEM leukemia
MCF7 breast = test system: MCF7 breast
ACHN renal = test system: ACHN renal
M14 melanoma = test system: M14 melanoma
SK-MEL-2 melanoma = test system: SK-MEL-2 melanoma
HCT-15 colon = test system: HCT-15 colon
HOP-92 NSCLC = test system: HOP-92 NSCLC
K-562 leukemia = test system: K-562 leukemia
OVCAR-3 ovarian = test system: OVCAR-3 ovarian
MDA-MB-435 = test system: MDA-MB-435
U251 CNS = test system: U251 CNS
IGROV1 ovarian = test system: IGROV1 ovarian
SK-MEL-5 melanoma = test system: SK-MEL-5 melanoma
OVCAR-4 ovarian = test system: OVCAR-4 ovarian
A549 NSCLC = test system: A549 NSCLC
HOP-62 NSCLC = test system: HOP-62 NSCLC
NCI-H23 lung = test system: NCI-H23 lung
BT-549 breast = test system: BT-549 breast
SK-OV-3 ovarian = test system: SK-OV-3 ovarian

CCN(CC)CCCC(C)NC(=S)N/N=C(\C)c1ccccn1 (stereo unspecified)
GI50 (NCI-H226 lung): 2.28 µM
TGI (NCI-H226 lung): 21.2 µM
GI50 (786-0 renal): 2.83 µM
TGI (786-0 renal): 12 µM
GI50 (CAKI-1 renal): 4.56 µM
TGI (CAKI-1 renal): > 100 µM
GI50 (NCI-H460 lung): 2.33 µM
TGI (NCI-H460 lung): 15 µM
GI50 (SNB-19 CNS): 7.83 µM
TGI (SNB-19 CNS): > 100 µM
GI50 (SN12C renal): 4.14 µM
TGI (SN12C renal): > 100 µM
GI50 (A498 renal): 2.57 µM
TGI (A498 renal): 97 µM
GI50 (RXF 393 renal): 2.14 µM
TGI (RXF 393 renal): 6.81 µM
GI50 (UO-31 renal): 2.51 µM
TGI (UO-31 renal): > 100 µM
GI50 (OVCAR-8 ovarian): 2.87 µM
TGI (OVCAR-8 ovarian): > 100 µM
GI50 (NCI/ADR-RES ovarian): 15.6 µM
TGI (NCI/ADR-RES ovarian): > 100 µM
GI50 (SF-268 CNS): 3.19 µM
TGI (SF-268 CNS): > 100 µM
GI50 (KM12 colon): 4.02 µM
TGI (KM12 colon): > 100 µM
GI50 (HCC-2998 colon): 3.52 µM
TGI (HCC-2998 colon): > 100 µM
GI50 (SK-MEL-28 melanoma): 16.9 µM
TGI (SK-MEL-28 melanoma): > 100 µM
GI50 (MOLT-4 leukemia): 4.49 µM
TGI (MOLT-4 leukemia): > 100 µM
GI50 (SF-295 CNS): 4.38 µM
TGI (SF-295 CNS): > 100 µM
GI50 (EKVX NSCLC): 6.71 µM
TGI (EKVX NSCLC): > 100 µM
GI50 (SR leukemia): 2.45 µM
TGI (SR leukemia): > 100 µM
GI50 (HCT-116 colon): 2.3 µM
TGI (HCT-116 colon): > 100 µM
GI50 (DU-145 prostate): 3.79 µM
TGI (DU-145 prostate): > 100 µM
GI50 (MDA-MB-231 breast): 0.475 µM
TGI (MDA-MB-231 breast): > 100 µM
GI50 (MALME-3M melanoma): 3.96 µM
TGI (MALME-3M melanoma): > 100 µM
GI50 (T-47D breast): 5.36 µM
TGI (T-47D breast): > 100 µM
GI50 (HL-60(TB) leukemia): 1.39 µM
TGI (HL-60(TB) leukemia): 6.02 µM
GI50 (LOX IMVI melanoma): 2.63 µM
TGI (LOX IMVI melanoma): > 100 µM
GI50 (UACC-62 melanoma): 3.02 µM
TGI (UACC-62 melanoma): > 100 µM
GI50 (SW-620 colon): 4.03 µM
TGI (SW-620 colon): > 100 µM
GI50 (PC-3 prostate): 5.02 µM
TGI (PC-3 prostate): > 100 µM
GI50 (TK-10 renal): 21.6 µM
TGI (TK-10 renal): > 100 µM
GI50 (UACC-257 melanoma): 3.16 µM
TGI (UACC-257 melanoma): 31.2 µM
GI50 (NCI-H522 lung): 3.17 µM
TGI (NCI-H522 lung): 9.41 µM
GI50 (OVCAR-5 ovarian): 4.89 µM
TGI (OVCAR-5 ovarian): > 100 µM
GI50 (HT29 colon): 5.59 µM
TGI (HT29 colon): > 100 µM
GI50 (COLO 205 colon): 3.25 µM
TGI (COLO 205 colon): > 100 µM
GI50 (SNB-75 CNS): 7.55 µM
TGI (SNB-75 CNS): > 100 µM
GI50 (SF-539 CNS): 3.33 µM
TGI (SF-539 CNS): 82 µM
GI50 (RPMI-8226 leukemia): 5.84 µM
TGI (RPMI-8226 leukemia): > 100 µM
GI50 (HS 578T breast): 43.9 µM
TGI (HS 578T breast): > 100 µM
GI50 (CCRF-CEM leukemia): 4.64 µM
TGI (CCRF-CEM leukemia): > 100 µM
GI50 (MCF7 breast): 2.94 µM
TGI (MCF7 breast): > 100 µM
GI50 (ACHN renal): 2.99 µM
TGI (ACHN renal): > 100 µM
GI50 (M14 melanoma): 2.8 µM
TGI (M14 melanoma): 17.8 µM
GI50 (SK-MEL-2 melanoma): 5.54 µM
TGI (SK-MEL-2 melanoma): > 100 µM
GI50 (HCT-15 colon): 2.49 µM
TGI (HCT-15 colon): > 100 µM
GI50 (HOP-92 NSCLC): 3.98 µM
TGI (HOP-92 NSCLC): > 100 µM
GI50 (K-562 leukemia): 3.08 µM
TGI (K-562 leukemia): > 100 µM
GI50 (OVCAR-3 ovarian): 3.87 µM
TGI (OVCAR-3 ovarian): > 100 µM
GI50 (MDA-MB-435): 5.17 µM
TGI (MDA-MB-435): > 100 µM
GI50 (U251 CNS): 2.78 µM
TGI (U251 CNS): > 100 µM
GI50 (IGROV1 ovarian): 5.64 µM
TGI (IGROV1 ovarian): > 100 µM
GI50 (SK-MEL-5 melanoma): 1.7 µM
TGI (SK-MEL-5 melanoma): 4.2 µM
GI50 (OVCAR-4 ovarian): 3 µM
TGI (OVCAR-4 ovarian): > 100 µM
GI50 (A549 NSCLC): 3.75 µM
TGI (A549 NSCLC): > 100 µM
GI50 (HOP-62 NSCLC): 5.86 µM
TGI (HOP-62 NSCLC): 83.1 µM
GI50 (NCI-H23 lung): 5.22 µM
TGI (NCI-H23 lung): > 100 µM

C[N+](C)([O-])Cc1cccc(NC(=O)c2ccc(C(=O)Nc3cccc(C[N+](C)(C)[O-])c3)cc2)c1
TGI (NCI-H226 lung): > 100 µM
TGI (786-0 renal): > 100 µM
TGI (CAKI-1 renal): > 100 µM
TGI (NCI-H460 lung): > 100 µM
TGI (SNB-19 CNS): > 100 µM
TGI (SN12C renal): > 100 µM
TGI (RXF 393 renal): > 100 µM
TGI (UO-31 renal): > 100 µM
TGI (OVCAR-8 ovarian): > 100 µM
TGI (NCI/ADR-RES ovarian): > 100 µM
TGI (SF-268 CNS): > 100 µM
TGI (KM12 colon): > 100 µM
TGI (HCC-2998 colon): > 100 µM
TGI (SK-MEL-28 melanoma): > 100 µM
TGI (MOLT-4 leukemia): > 100 µM
TGI (BT-549 breast): > 100 µM
TGI (SF-295 CNS): > 100 µM
TGI (EKVX NSCLC): > 100 µM
TGI (SR leukemia): > 100 µM
TGI (HCT-116 colon): > 100 µM
TGI (DU-145 prostate): > 100 µM
TGI (MDA-MB-231 breast): > 100 µM
TGI (MALME-3M melanoma): > 100 µM
TGI (T-47D breast): > 100 µM
TGI (SK-OV-3 ovarian): > 100 µM
TGI (HL-60(TB) leukemia): > 100 µM
TGI (LOX IMVI melanoma): > 100 µM
TGI (UACC-62 melanoma): > 100 µM
TGI (SW-620 colon): > 100 µM
TGI (PC-3 prostate): > 100 µM
TGI (TK-10 renal): > 100 µM
TGI (UACC-257 melanoma): > 100 µM
TGI (NCI-H522 lung): > 100 µM
TGI (OVCAR-5 ovarian): > 100 µM
TGI (HT29 colon): > 100 µM
TGI (COLO 205 colon): > 100 µM
TGI (SF-539 CNS): > 100 µM
TGI (RPMI-8226 leukemia): > 100 µM
TGI (CCRF-CEM leukemia): > 100 µM
TGI (MCF7 breast): > 100 µM
TGI (ACHN renal): > 100 µM
TGI (M14 melanoma): > 100 µM
TGI (SK-MEL-2 melanoma): > 100 µM
TGI (HCT-15 colon): > 100 µM
TGI (HOP-92 NSCLC): > 100 µM
TGI (K-562 leukemia): > 100 µM
TGI (OVCAR-3 ovarian): > 100 µM
TGI (U251 CNS): > 100 µM
TGI (IGROV1 ovarian): > 100 µM
TGI (SK-MEL-5 melanoma): > 100 µM
TGI (OVCAR-4 ovarian): > 100 µM
TGI (A549 NSCLC): > 100 µM
TGI (HOP-62 NSCLC): > 100 µM
TGI (NCI-H23 lung): > 100 µM
